Assay results taken from patent publication US12673946B2, “Pyrimidin-4(3H)-one derivatives as TRPV4 antagonists” (RaQualia Pharma Inc., priority 2020, dated 2026).

Target: T1, human TRPV4 (Homo sapiens, UniProt Q9HBA0)
T1 construct: host or cells: tetracycline-inducible Flp-In T-REx 293 cells
Assay: Hypotonicity-induced Ca2+ influx (Fluo-4, FDSS)
Format: cell-based
Method in brief: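 Flp-In T-REx 293 cells with tetracycline-induced human TRPV4, loaded with Fluo-4 for 60 min at 25 °C. Compound added 5 min before hypotonic mannitol/CaCl2 solution. Ca2+ signal recorded for 4.5 min on FDSS.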

[1] = Flp-In T-REx 293 cells expressing human TRPV4, examples listed under heading 'Human IC50<50 nM'
[2] = Flp-In T-REx 293 cells stably expressing human TRPV4, compounds listed by potency bin (<10 nM Tables 96-1/96-2, <3 nM Table 97)

T1 sequence (Q9HBA0 whole entry): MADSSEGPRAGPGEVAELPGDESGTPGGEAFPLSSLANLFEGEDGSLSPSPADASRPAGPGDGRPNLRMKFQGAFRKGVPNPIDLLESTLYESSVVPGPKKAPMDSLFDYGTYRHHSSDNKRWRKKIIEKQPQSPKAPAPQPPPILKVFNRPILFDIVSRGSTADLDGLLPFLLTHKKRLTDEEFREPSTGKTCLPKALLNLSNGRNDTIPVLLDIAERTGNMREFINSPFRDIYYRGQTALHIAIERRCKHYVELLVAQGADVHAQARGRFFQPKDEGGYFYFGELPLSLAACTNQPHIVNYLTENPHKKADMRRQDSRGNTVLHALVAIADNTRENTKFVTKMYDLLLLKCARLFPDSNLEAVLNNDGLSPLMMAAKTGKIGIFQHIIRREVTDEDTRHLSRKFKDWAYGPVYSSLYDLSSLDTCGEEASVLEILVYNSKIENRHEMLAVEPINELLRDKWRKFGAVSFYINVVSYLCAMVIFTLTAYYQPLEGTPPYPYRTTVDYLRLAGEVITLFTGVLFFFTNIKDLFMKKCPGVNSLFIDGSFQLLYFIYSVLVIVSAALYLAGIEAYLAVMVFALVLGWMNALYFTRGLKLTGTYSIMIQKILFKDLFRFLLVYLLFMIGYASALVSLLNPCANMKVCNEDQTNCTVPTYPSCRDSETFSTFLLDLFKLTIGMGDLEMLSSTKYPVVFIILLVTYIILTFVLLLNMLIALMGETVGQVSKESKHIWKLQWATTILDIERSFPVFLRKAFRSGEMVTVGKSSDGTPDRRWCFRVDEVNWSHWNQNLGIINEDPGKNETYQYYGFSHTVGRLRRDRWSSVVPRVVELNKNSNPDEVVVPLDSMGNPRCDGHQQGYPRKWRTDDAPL

Row | IC50 [1] [nM] | IC50 [2] [nM] | SMILES
1 | < 50 | < 10 | CC(C)c1cncc(C2(c3nc4c(c(=O)[nH]3)CN(C(=O)C(O)c3cccc(-c5cccc(C(F)(F)F)c5)c3)CCC4)CC2)c1 (stereo not drawn) [55-3]
2 | < 50 | < 10 | O=C([C@H](O)c1cccc(-c2cccc(C(F)(F)F)c2)c1)N1CCCc2nc(C3(c4cccc(-c5csc6ccccc56)c4)CC3)[nH]c(=O)c2C1 [52-9]
3 | < 50 | < 3 | O=C([C@H](O)c1cccc(-c2cccc(F)c2)c1)N1CCCc2nc(C3(c4cccc(Cl)c4)CC3)[nH]c(=O)c2C1 [50-6]
4 | < 50 | < 3 | CC(C)c1csc(C2(c3nc4c(c(=O)[nH]3)CN(C(=O)[C@H](O)c3cccc(-c5cccc(C(C)(C)C)c5)c3)CCC4)CC2)c1 [54-1]
5 | < 50 | < 10 | O=C(C(O)c1cccc(-c2cc(C(F)(F)F)cc(C(F)(F)F)c2)c1)N1CCc2nc(C3(c4ccccc4)CC3)[nH]c(=O)c2C1 (stereo not drawn) [44-8]
6 | < 50 | < 10 | O=C(C(O)c1cccc(-c2cc(F)cc(Cl)c2)c1)N1CCCc2nc(C3(c4ccccc4)CC3)[nH]c(=O)c2C1 (stereo not drawn) [49-4]
7 | < 50 | – | O=C(C(O)c1cccc(-c2ccc(C(F)(F)F)cc2)c1)N1CCc2nc(C3(c4ccccc4)CC3)[nH]c(=O)c2C1 (stereo not drawn) [44-25]
8 | < 50 | < 3 | O=C([C@H](O)c1cccc(C(F)(F)F)c1)N1CCCc2nc(C3(c4cccc(C5=CCN(C(=O)C6(c7cccc(C(F)(F)F)c7)CC6)CC5)c4)CC3)[nH]c(=O)c2C1 [42-83]
9 | < 50 | < 10 | O=C(C(O)c1cccc(-c2cccc(C(F)(F)F)c2)c1)N1CCCc2nc(C3(c4cccc(F)c4)CC3)[nH]c(=O)c2C1 (stereo not drawn) [17-14]
10 | < 50 | < 10 | O=C(C(O)c1cccc(-c2cccc(Cl)c2)c1)N1CCCc2nc(C3(c4ccccc4)CC3)[nH]c(=O)c2C1 (stereo not drawn) [49-6]
11 | < 50 | < 10 | CC(C)c1csc(C2(c3nc4c(c(=O)[nH]3)CN(C(=O)C(O)c3cccc(-c5cccc(C(F)(F)F)c5)c3)CCC4)CC2)c1 (stereo not drawn) [18-21]
12 | < 50 | – | O=C(CCc1cccc(C(F)(F)F)c1)N1CCCc2nc(C3(c4cccc(Cl)c4)CC3)[nH]c(=O)c2C1 [17-121]
13 | < 50 | – | O=C([C@H](O)c1cccc(Cl)c1)N1CCCc2nc(C3(c4cccs4)CC3)[nH]c(=O)c2C1 [18-12]
14 | < 50 | < 10 | CNc1ccc(-c2cccc(C3(c4nc5c(c(=O)[nH]4)CN(C(=O)[C@H](O)c4cccc(C(F)(F)F)c4)CCC5)CC3)c2)cn1 [42-54]
15 | < 50 | < 3 | O=C([C@H](O)c1cccc(C(F)(F)F)c1)N1CCc2nc(C3(c4cc(C5CCCCCC5)cs4)CC3)[nH]c(=O)c2C1 [15-3]
16 | < 50 | < 10 | O=C([C@H](O)c1cccc(Cl)c1)N1CCCc2nc(C3(c4cccc(-c5cc6ccccc6s5)c4)CC3)[nH]c(=O)c2C1 [40-18]
17 | < 50 | < 10 | O=C(C(O)c1cccc(-c2ccc(Cl)cc2)c1)N1CCc2nc(C3(c4cccc(Cl)c4)CC3)[nH]c(=O)c2C1 (stereo not drawn) [14-9]
18 | < 50 | < 10 | Cc1cc(Cl)cc(-c2cccc([C@@H](O)C(=O)N3CCCc4nc(C5(c6ccccc6)CC5)[nH]c(=O)c4C3)c2)c1 [49-29]
19 | < 50 | < 3 | CC(C)c1cccc(C2(c3nc4c(c(=O)[nH]3)CN(C(=O)[C@H](O)c3cccc(-c5ccnc(C(F)(F)F)c5)c3)CCC4)CC2)c1 [51-6]
20 | < 50 | < 3 | CC(C)(C)c1cccc(-c2cccc(C(O)C(=O)N3CCCc4nc(C5(c6cncc(-c7ccccc7)c6)CC5)[nH]c(=O)c4C3)c2)c1 (stereo not drawn) [56-3]
21 | < 50 | < 10 | CC(C)c1cccc(C2(c3nc4c(c(=O)[nH]3)CN(C(=O)Cc3cccc(-c5cccc(C(F)(F)F)c5)c3)CCC4)CC2)c1 [31-13]

Row | IC50 [1] [nM] | IC50 [2] [nM] | SMILES
22 | < 50 | < 10 | CN(Cc1ccccc1)C(=O)c1csc(C2(c3nc4c(c(=O)[nH]3)CN(C(=O)[C@H](O)c3cccc(C(F)(F)F)c3)CCC4)CC2)c1 [59-3]
23 | < 50 | – | O=C([C@H](O)c1cccc(F)c1F)N1CCCc2nc(C3(c4cccc(F)c4)CC3)[nH]c(=O)c2C1 [17-60]
24 | < 50 | – | O=C(Cc1cccc(-c2ccc(Cl)cc2)c1)N1CCc2nc(C3(c4cccc(Cl)c4)CC3)[nH]c(=O)c2C1 [14-119]
25 | < 50 | < 3 | O=C(N1CCCc2nc(C3(c4cncc(-c5ccccc5)c4)CC3)[nH]c(=O)c2C1)C(F)(F)c1cccc(C(F)(F)F)c1 [22-4]
26 | < 50 | < 10 | CN(C(=O)c1csc(C2(c3nc4c(c(=O)[nH]3)CN(C(=O)[C@H](O)c3cccc(C(F)(F)F)c3)CCC4)CC2)c1)C(c1ccccc1)c1ccccc1 [59-13]
27 | < 50 | < 10 | O=C([C@H](O)c1cccc(-c2csc3ccccc23)c1)N1CCCc2nc(C3(c4cccc(C5CCCCC5)c4)CC3)[nH]c(=O)c2C1 [52-6]
28 | < 50 | < 10 | Cc1ccc(-c2cccc([C@@H](O)C(=O)N3CCc4nc(C5(c6ccccc6)CC5)[nH]c(=O)c4C3)c2)cc1Cl [44-94]
29 | < 50 | < 10 | O=C(C(O)c1cccc(SC(F)(F)F)c1)N1CCCc2nc(C3(c4cccc(F)c4)CC3)[nH]c(=O)c2C1 (stereo not drawn) [17-30]
30 | < 50 | < 10 | O=C(C(O)c1cccc(-c2cc(C(F)(F)F)ccc2Cl)c1)N1CCc2nc(C3(c4ccccc4)CC3)[nH]c(=O)c2C1 (stereo not drawn) [44-13]
31 | < 50 | < 10 | CC(C)c1cncc(C2(c3nc4c(c(=O)[nH]3)CN(C(=O)[C@H](O)c3cccc(-c5ccc(Cl)cc5)c3)CC4)CC2)c1 [47-4]
32 | < 50 | < 10 | CC(C)c1cncc(C2(c3nc4c(c(=O)[nH]3)CN(C(=O)C(O)c3cccc(Cl)c3F)CCC4)CC2)c1 (stereo not drawn) [19-12]
33 | < 50 | < 10 | O=C([C@H](O)c1cccc(-c2cccc(C(F)(F)F)c2)c1)N1CCCc2nc(C3(c4cncc(C5CCCCC5)c4)CC3)[nH]c(=O)c2C1 [55-14]
34 | < 50 | < 10 | O=C(N1CCCc2nc(C3(c4cccc(-c5csc6ccccc56)c4)CC3)[nH]c(=O)c2C1)C(F)(F)c1cccc(C(F)(F)F)c1 [20-15]
35 | < 50 | – | O=C([C@H](O)c1cccc(Cl)c1)N1CCc2nc(C3(c4cccc(Cl)c4)CC3)[nH]c(=O)c2C1 [3-50]
36 | < 50 | < 10 | O=C([C@H](O)c1cccc(C(F)(F)F)c1F)N1CCCc2nc(C3(c4cncc(-c5ccccc5)c4)CC3)[nH]c(=O)c2C1 [19-3]
37 | < 50 | < 3 | Cn1ncc2cc(-c3cccc(C4(c5nc6c(c(=O)[nH]5)CN(C(=O)[C@H](O)c5cccc(Cl)c5)CCC6)CC4)c3)ccc21 [40-12]
38 | < 50 | < 10 | CC(C)c1csc(C2(c3nc4c(c(=O)[nH]3)CN(C(=O)C(O)c3cccc(-c5cccc(OC(F)(F)F)c5)c3)CCC4)CC2)c1 (stereo not drawn) [18-20]
39 | < 50 | – | O=C([C@H](O)c1cccc(-c2cccc(Cl)c2Cl)c1)N1CCc2nc(C3(c4ccccc4)CC3)[nH]c(=O)c2C1 [44-109]
40 | < 50 | < 3 | CC(C)c1csc(C2(c3nc4c(c(=O)[nH]3)CN(C(=O)C(O)c3cccc(Cl)c3F)CCC4)CC2)c1 (stereo not drawn) [18-17]
41 | < 50 | < 10 | O=C([C@H](O)c1cccc(-c2cccc(Cl)c2)c1)N1CCc2nc(C3(c4ccccc4)CC3)[nH]c(=O)c2C1 [44-73]
